Assay results taken from patent US20110237626A1, “COMPOSITIONS FOR HYGIENIC HAND DISINFECTION AND DISINFECTANT HANDWASHING” (AIR LIQUIDE SANTE (INTERNATIONAL), priority 2005, published 2011).

Compound: CCCCC(CC)COCC(O)CO (stereo not shown) [1-(2-ethylhexyl)glycerol ether, 1-(2-Ethylhexyl)-glycerol ether]
- solubility in water: 0.1 % by weight
